Entries after “also recorded” stand apart in the source; their conditions may differ.
Legend:
[1] = test system: healthy volunteers and patients; experiment: Cerebral blood flow after single dose of Compound 03-5; format: in vivo, human; conditions: single dose of Compound 03-5 in the absence or presence of 3 mg nadolol
Excerpt: Data are plotted as mean (±SEM) percent change in cerebral blood flow from baseline in brain regions of interest for movement (the precentral gyrus) and mood, anhedonia and cognition (hippocampus, thalamus, amygdala).

[2] = test system: healthy volunteers; experiment: Blood potassium, glucose and other peripheral effects after Compound 03-5 with or without nadolol; format: in vivo, human
Protocol: (§1) Healthy volunteers were enrolled into 2 cohorts in a study to undertake within-subject dose titration of Compound 03-5 and/or nadolol in order to explore doses/dose combinations that mitigate peripheral effects of Compound 03-5, e.g. on heart rate, while preserving possible central effects of Compound 03-5 on cerebral perfusion and pupillary light reflex.
(§2) Eight healthy subjects aged 18-50 years were enrolled into Cohort D1 and received escalating doses of Compound 03-5 (3-12 mg) administered once daily 2 hours follow pre-administration of nadolol (1-40 mg). On all dosing days, study drug(s) were administered orally after an overnight fast of at least 8 hours.
(§3) In Cohort D2, 8 healthy volunteers aged 55-75 years were admitted on Day −1 for a 5-day confinement period at the research facility. During this confinement, subjects received escalating doses of open label Compound 03-5 (1-10 mg) once-daily from Day 1 through Day 3 2 hours after pre-administration of open-label nadolol (3 mg) one each for the 3 dosing days according to the schematic in FIG. 17. Subjects remained in-residency until all study procedures are completed on Day 4.

[3] = test system: healthy volunteers; experiment: CANTAB cognition battery, Cohort D2; format: in vivo, human; conditions: Compound 03-5 1, 3 and 10 mg on Days 1, 2, 3 in the presence of 3 mg nadolol
Protocol: as §3
Compound 03-5 dose administration. Compound 03-5 was administered as escalating doses on Day 1 (1 mg), Day 2 (3 mg) and Day 3 (10 mg). CANTAB was conducted twice in all subjects on the day prior to start of dosing (Day −1) to familiarize subjects with the platform, and prior to dosing and approximately 3 hours after Compound 03-5 administration on Days 1, 2, and 3.

[4] = test system: healthy volunteers; experiment: Heart rate (triplicate ECG) after Compound 03-5 with or without nadolol; format: in vivo, human
Protocol: as §1, §2, §3

[5] = test system: healthy subjects; experiment: Visual verbal learning test (VVLT); format: in vivo, human; conditions: single dose; crossover study
Protocol: Subjects are presented 30 words on a screen, one at a time, for 1 second with a 1-second interval between words over a total of 1 minute. This is repeated in 3 trials. After each trial, subjects are asked to recall as many words as they can. After the third trial, there is a delay of 2.5 hours and subjects are then tested once for delayed recall. […] Since this was a crossover study, everyone who completed Part A was dosed with the 3 agents plus placebo.

[6] = test system: patients with neurodegenerative disorders; experiment: Facial Expression Recognition Task (FERT), crossover study; format: in vivo, human; conditions: clenbuterol co-administered with low-dose nadolol vs placebo
Excerpt: The Facial Expression Recognition Task (FERT) assesses the recognition of facial emotions. […] Different intensity levels of each emotion are presented, which increases the ambiguity of the facial expression and the sensitivity of the task.

[7] = test system: patients; experiment: Peripheral effects of clenbuterol with or without nadolol (heart rate, potassium, glucose)
[8] = test system: patients with neurodegenerative disorders; format: in vivo, human; conditions: 80 μg clenbuterol and 1 mg nadolol once daily for 14 days vs placebo
[9] = test system: healthy subjects; experiment: Cerebral perfusion by ASL MRI after single dose of clenbuterol (Example 3); conditions: for cerebral blood flow measured by MRI-ASL: healthy volunteers, single dose (FIG. 2)
[10] = test system: healthy subjects; experiment: Adaptive tracking test; format: in vivo, human; conditions: single dose 160 μg clenbuterol
Excerpt: Adaptive tracking measures visuomotor coordination and vigilance. In this test, the subject uses a joystick to move a small dot so that it stays within a continuously moving circle on a computer screen (Boland 1984). During the test, the speed of the circle is adjusted in response to the subject's ability to keep the dot in the circle, ensuring that the test is adapted to the individual subject. […] The improvement shown by subjects is in the same range as that seen with subjects treated with the acetylcholinesterase inhibitor donepezil, which is in clinical use for the treatment of mild to moderate AD (Groeneveld 2016).

[11] = test system: patients; experiment: Cerebral blood flow by brain imaging after single dose (Example 1); format: in vivo, human
[12] = monotherapy with Compound 03-5 (0.3-6 mg)
[13] = 80 µg clenbuterol on its own, single dose

**Q.** Which results are given for CC(C)(C)NC[C@H](O)c1cccc(C#N)n1 [Compound 03-5, (S)-6-(2-(tert-butylamino)-1-hydroxyethyl)picolinonitrile]?
**A.** cerebral blood flow from baseline (precentral gyrus, hippocampus, thalamus, amygdala) [1]: robust, global increases in cerebral blood flow; blood potassium concentrations [2, 12]: dose-dependent decreases in blood potassium concentrations; cognition (CANTAB), change from within-day pre-dose assessment [3]: improvements in performance in the CANTAB cognition battery; mean maximum increase in heart rate ([4]; Compound 03-5 with pre-administration of 1 mg nadolol): 7 beats per minute; heart rate change from baseline [4, 12]: dose-dependent increases in heart rate

**Q.** For CC(C)(C)NCC(O)c1cc(Cl)c(N)c(Cl)c1 (centres unmarked) [clenbuterol], which “effect on VVLT (number of words recalled correctly)” value [5] is on record?
**A.** improvements in cognition; also recorded: positive effects

**Q.** And the “accuracy of correctly identifying happy facial expressions (FERT)” value [6]?
**A.** statistically significant increase in the accuracy

**Q.** What about the “glucose in the blood, change from baseline” value [7, 13] of the same molecule?
**A.** increases in glucose in the blood

**Q.** What about the “potassium in the blood, change from baseline” value [7, 13] of the same molecule?
**A.** decreases in potassium in the blood

**Q.** What about the “heart rate change from baseline” value ([7]; 80 g clenbuterol on its own, single dose) of the same molecule?
**A.** increases in heart rate

**Q.** And the “increases in heart rate” value ([7]; over the 4 hours after dosing clenbuterol+nadolol (1 mg))?
**A.** 4.0-6.8 bpm

**Q.** And the “number of words correctly recalled, immediate verbal recall” value [8]?
**A.** statistically significant increase in the number of words correctly recalled

**Q.** And the cerebral perfusion ([9]; 160 μg clenbuterol, hippocampus, thalamus, amygdala, cortex, precentral gyrus)?
**A.** robust global increase in cerebral perfusion

**Q.** And the “cerebral perfusion as measured by CBF” value ([9]; clenbuterol 40 μg)?
**A.** minimal increase

**Q.** And the “cerebral perfusion as measured by CBF” value ([9]; clenbuterol doses below 30 μg)?
**A.** do not produce significant cerebral perfusion increases

**Q.** And the “cerebral blood flow measured by MRI-ASL” value [9]?
**A.** increases in cerebral blood flow

**Q.** What about the “performance in adaptive tracking (percent time dot kept within moving circle)” value [10] of the same molecule?
**A.** improved performance in the adaptive tracking task; also recorded: improves cognition; also recorded: performance in adaptive tracking improves

**Q.** And the “cerebral blood flow (CBF) relative to the baseline” value ([11]; single dose clenbuterol 160 μg)?
**A.** global increases in cerebral blood flow; also recorded: robust global increase in cerebral blood flow; also recorded: robust, global increase in cerebral blood flow

**Q.** And the “cerebral blood flow (CBF) relative to the baseline” value ([11]; single dose clenbuterol 160 μg and nadolol 5 mg)?
**A.** global increases in cerebral blood flow; also recorded: robust global increase in cerebral blood flow

**Q.** What about the “cerebral blood flow from the baseline” value ([11]; single dose clenbuterol 30 to 160 μg and/or nadolol 5 mg, tracked 3 days) of the same molecule?
**A.** robust global increase in cerebral blood flow

**Q.** What about the “cerebral blood flow (CBF) relative to the baseline” value ([11]; single dose clenbuterol ranging from 20 to 160 μg, tracked 3 days) of the same molecule?
**A.** robust global increase in cerebral blood flow

**Q.** For CC(C)(C)NCC(O)COc1cccc2c1CC(O)C(O)C2 (centres unmarked) [nadolol], which “effect of nadolol on Compound 03-5 induced decrease in blood potassium” value ([2]; 3 mg nadolol, cohort D2) is on record?
**A.** inhibited

**Q.** And the “effect of nadolol on effects of Compound 03-5 on blood glucose and potassium, tachycardia, tremor and palpitations” value ([2]; pre-administration of 1 mg nadolol)?
**A.** Concomitant attenuation

**Q.** And the “effect of nadolol on peripheral effects of Compound 03-5 (heart rate, glucose, potassium)” value ([4]; 3 mg nadolol pre-administered, Cohort D2, Compound 03-5 1-10 mg)?
**A.** inhibited; also recorded: similarly blocked

**Q.** And the “effect of nadolol on peripheral effects of Compound 03-5 (heart rate, glucose, potassium, tachycardia, tremor, palpitations)” value ([4]; Cohort D1, nadolol 1 mg up to 40 mg, Compound 03-5 3-12 mg)?
**A.** blocked

**Q.** And the “effect of nadolol on heart rate increase and other peripheral effects of Compound 03-5” value ([4]; pre-administration of 1 mg nadolol, Compound 03-5 up to 6 mg orally)?
**A.** substantially attenuated

**Q.** What does the source list for CC(C)NCC(O)COc1cccc2[nH]ccc12 (centres unmarked) [pindolol]?
**A.** effect on VVLT (number of words recalled correctly) [5]: detrimental effect; cerebral blood flow measured by MRI-ASL [9]: lack of increase in cerebral blood flow

**Q.** Which “effect on VVLT (number of words recalled correctly)” value [5] does the source give for CC(C)(C)NCC(O)c1ccc(O)c(CO)c1 (centres unmarked) [salbutamol] here?
**A.** improvements in cognition; also recorded: positive effects
